This note sets out measurements from patent US20250017846A1, “TOPICAL ANALGESICS” (THE REGENTS OF THE UNIVERSITY OF CALIFORNIA, priority 2023, published 2025).

Common to all, as to assay type: in vivo, rat
The test system of test [1] is rats with chemotherapy-induced painful peripheral neuropathy (CIPN). As to the kind of experiment: Oxaliplatin-induced hyperalgesia (CIPN), mechanical nociceptive threshold after topical administration. The settings on record: oxaliplatin 2 mg/kg i.v. day 0, day 14 topical morphine 0.1 μg/μl with protamine 2 μg/μl, 30 μL on dorsum of hind paw, 30 and 60 min, P<0.0001. How it is done:
Female rats received oxaliplatin (2 mg/kg, i.v.) on day 0. On day 14, at which time oxaliplatin-induced hyperalgesia was established, morphine combined with protamine or protamine alone (dissolved in distillated water-dH20) or morphine (using saline as a vehicle), each in a volume of 30 μL, was administered topically on the dorsum of one hind paw, at the site of nociceptive threshold testing. Protamine was used at a concentration of 2 μg/μl and morphine was used at a concentration of 0.1 μg/μl. Mechanical nociceptive threshold was evaluated before and 14 days after oxaliplatin administration, and again 30 and 60 minutes after topical drug administration. […] Two-way repeated measures ANOVA, F(6.18)=26.85, P<0.0001. Bonferroni's multiple comparison post-hoc test. n=3 per group.
Male rats received oxaliplatin (2 mg/kg, i.v.) on day 0. On day 14, at which time oxaliplatin-induced hyperalgesia was established, morphine combined with protamine or protamine alone, each in a volume of 30 μL, was administered topically on the dorsum of one hind paw, at the site of nociceptive threshold testing. Protamine was used at a concentration of 2 μg/μl and morphine was used at a concentration of 0.1 μg/μl. Mechanical nociceptive threshold was evaluated before and 14 days after oxaliplatin administration, and again 30 and 60 minutes after topical administration. […]

Test [2] relates to PGE2 hyperalgesia in rats. As to the kind of experiment: PGE2-induced hyperalgesia, mechanical nociceptive threshold after topical administration. The settings on record: male rats; PGE2 100 ng/5 μL i.d.; 10 min later topical morphine 0.1 μg/μl with protamine 2 μg/μl, 30 μL; 30 and 60 min; P=0.0366. The method, then: Male rats received PGE2 (100 ng/5 μL, intradermally, i.d.), on the dorsum of the hind paw followed, 10 minutes later, by morphine combined with protamine or protamine alone (dissolved in distillated water-dH20) or morphine (using saline as a vehicle), each in a volume of 30 μL, was administered topically on the dorsum of one hind paw, at the site of the i.d. PGE2 injection. Protamine was used at a concentration of 2 μg/μl and morphine was used at a concentration of 0.1 μg/μl. Mechanical nociceptive threshold was evaluated before intradermal PGE2 and again 30 and 60 min after topical administration. […] Two-way repeated measures ANOVA, F(2.8)=4.25, *P=0.0366. Bonferroni's multiple comparison post-hoc test. Data shown as mean±SEM; n=3 paws, per group.

Test [3] has as its system carrageenan-induced hyperalgesia in rats. As to the kind of experiment: Carrageenan-induced hyperalgesia, mechanical nociceptive threshold after topical administration. The settings on record: male rats; carrageenan i.d.; 30 min later topical indomethacin 1 μg/μl with protamine 2 μg/μl, 30 μL; P<0.0001. How it is done:
Male rats were treated with carrageenan (0.1% in 1 μg/5 μL) intradermally (i.d.), into the dorsum of the hind paw. Thirty minutes after the carrageenan administration, when hyperalgesia was established, animals received indomethacin combined with protamine or protamine alone, each in a volume of 30 μL, topically on the dorsum of one hind paw, at the site of the i.d. injection. Protamine was used at a concentration of 2 μg/μl and indomethacin was used at a concentration of 1 μg/μl. Mechanical nociceptive threshold was evaluated before carrageenan administration, and again 30 and 90 minutes after. […] Two-way repeated measures ANOVA, F(2.14)=40.46, P<0.0001. Bonferroni's multiple comparison post-hoc test. Data shown as mean±SEM; n=3 paws, per group.

SMILES strings stand for the structures.

With `CN1CC[C@]23c4c5ccc(O)c4O[C@H]2[C@@H](O)C=C[C@H]3[C@H]1C5` [morphine], the “effect on oxaliplatin-induced hyperalgesia (mechanical nociceptive threshold)” value in test [1] (female rats) and in test [1] (male rats) was “attenuated oxaliplatin-induced hyperalgesia” throughout. Also, the “effect on PGE2-hyperalgesia (mechanical nociceptive threshold)” value in test [2] is “significant attenuation of PGE2-hyperalgesia”.

As to `COc1ccc2c(c1)c(CC(=O)O)c(C)n2C(=O)c1ccc(Cl)cc1` [indomethacin], in test [3], the “effect on carrageenan-induced hyperalgesia (mechanical nociceptive threshold)” value is given as “attenuated carrageenan-induced hyperalgesia”.
